Assay results as given in DBAASP.
Converted amounts (≈) assume the structure as drawn.

Key:
Test in all cases: ≥ marks a high value that may be exact or a test limit, other limits are often not marked, values filed in µg/mL are converted to µM
[1] = test system: Staphylococcus aureus NCTC 10788
[2] = test system: Bacillus subtilis ATCC 6051
Bacillus cereus = test system: Bacillus cereus
Escherichia coli = test system: Escherichia coli
Bacillus subtilis = test system: Bacillus subtilis
Salmonella typhimurium = test system: Salmonella typhimurium
Staphylococcus aureus = test system: Staphylococcus aureus
[3] = test system: Pseudomonas aeruginosa ATCC 9027
[4] = test system: Staphylococcus aureus ATCC 6538
[5] = test system: Escherichia coli DH5alpha
[6] = test system: Staphylococcus aureus ATCC 25923
[7] = test system: Escherichia coli ATCC 25726
[8] = test system: Candida albicans ATCC 90028

SMILES | MIC (Bacillus cereus) | MIC (Escherichia coli) | MIC (Staphylococcus aureus) | other results
CC(C)C[C@H](NC(=O)[C@H](CC(C)C)NC(=O)CNC(=O)CNC(=O)[C@H](CC(C)C)NC(=O)[C@@H](NC(=O)[C@H](CC(N)=O)NC(=O)[C@H](CO)NC(=O)[C@@H](NC(=O)[C@H](CC(C)C)NC(=O)CNC(=O)[C@H](CC(C)C)NC(=O)[C@@H](NC(=O)[C@@H]1CCCN1C(=O)CNC(=O)[C@H](CC(C)C)NC(=O)[C@@H](N)CC(C)C)C(C)C)C(C)C)C(C)C)C(N)=O [LLGPVLGLVSNVLGGLL] |  |  |  | MIC [1]: ≥ 157 µM
CC[C@H](C)[C@H](NC(=O)[C@H](CC(N)=O)NC(=O)[C@H](CC(N)=O)NC(=O)CNC(=O)[C@H](CCC(=O)O)NC(=O)[C@H](CC(N)=O)NC(=O)[C@H](CCC(=O)O)NC(=O)[C@H](CCC(N)=O)NC(=O)[C@H](CCC(=O)O)NC(=O)[C@H](CCC(=O)O)NC(=O)[C@@H](N)CCCCN)C(=O)N[C@@H](Cc1ccccc1)C(=O)N[C@H](C(=O)N[C@@H](CC(N)=O)C(=O)N[C@@H](CCCN=C(N)N)C(=O)N[C@@H](Cc1cnc[nH]1)C(=O)N[C@H](C(=O)N[C@H](C(=O)N[C@@H](CC(=O)O)C(=O)N[C@@H](CCCCN)C(=O)N[C@@H](CC(C)C)C(=O)O)C(C)C)[C@@H](C)CC)C(C)C [KEEQENEGNNIFVNRHIVDKL] |  |  |  | MIC [2]: ≥ 1000 µM
CC[C@H](C)[C@H](NC(=O)[C@H](CC(C)C)NC(=O)[C@H](CO)NC(=O)[C@@H]1CCCN1C(=O)[C@@H](NC(=O)[C@@H](NC(=O)[C@H](CCCCN)NC(=O)[C@H](CO)NC(=O)[C@H](C)NC(=O)[C@@H](NC(=O)[C@H](CO)NC(=O)CNC(=O)[C@@H](NC(=O)[C@H](C)NC(=O)[C@@H](N)CO)C(C)C)C(C)C)C(C)C)C(C)C)C(=O)N[C@@H](CO)C(=O)N[C@@H](CCCCN)C(=O)N[C@H](C(=O)N[C@H](C(=O)N[C@@H](CCCCN)C(=O)O)[C@@H](C)O)C(C)C [SAVGSVASKVVPSLISKVTK] | ≥ 131 µM | > 131 µM |  | 
CC[C@H](C)[C@H](NC(=O)[C@@H](NC(=O)[C@H](CO)NC(=O)[C@H](CCCCN)NC(=O)[C@H](C)NC(=O)[C@@H](NC(=O)[C@H](CCCCN)NC(=O)[C@@H](NC(=O)[C@@H](N)CO)C(C)C)C(C)C)C(C)C)C(=O)N1CCC[C@H]1C(=O)N[C@@H](CO)C(=O)N[C@@H](C)C(=O)N[C@H](C(=O)N[C@@H](Cc1ccccc1)C(=O)N[C@@H](C)C(=O)NCC(=O)NCC(=O)N[C@@H](CCCCN)C(=O)N[C@H](C(=O)N[C@@H](Cc1ccccc1)C(=O)O)C(C)C)C(C)C [SVKVAKSVIPSAVFAGGKVF] | ≥ 129 µM | > 129 µM |  | 
CC[C@H](C)[C@H](NC(=O)[C@H](CCCN=C(N)N)NC(=O)[C@@H](NC(=O)[C@@H](NC(=O)[C@@H](NC(=O)CN)C(C)C)C(C)C)C(C)C)C(=O)NCC(=O)N[C@@H](CCCN=C(N)N)C(=O)N[C@H](C(=O)N[C@H](C(=O)N[C@H](C(=O)N[C@@H](CCCN=C(N)N)C(=O)NCC(=O)N[C@H](C(=O)N[C@@H](CCCN=C(N)N)C(=O)N[C@@H](CCCN=C(N)N)C(N)=O)C(C)C)C(C)C)C(C)C)C(C)C [GVVVRIGRVVVRGVRR] |  | 8 µM (≈ 14.2 µg/mL) | 8 µM (≈ 14.2 µg/mL) | MIC (Bacillus subtilis): 8 µM (≈ 14.2 µg/mL); MIC (Salmonella typhimurium): 4 µM (≈ 7.1 µg/mL)
CC(C)C[C@H](NC(=O)[C@@H](N)Cc1ccccc1)C(=O)NCC(=O)N[C@@H](CO)C(=O)N[C@H](C(=O)N[C@@H](Cc1ccccc1)C(=O)N[C@@H](CCCCN)C(=O)N[C@@H](CO)C(=O)N[C@@H](C)C(=O)N[C@@H](CO)C(=O)N[C@@H](CCCCN)C(=O)N[C@H](C(=O)N[C@@H](Cc1ccccc1)C(=O)N1CCC[C@H]1C(=O)N[C@@H](C)C(=O)N[C@H](C(=O)N[C@@H](Cc1ccccc1)C(=O)NCC(=O)N[C@@H](CCCCN)C(=O)N[C@H](C(=O)O)C(C)C)C(C)C)C(C)C)C(C)C [FLGSVFKSASKVFPAVFGKV] | ≥ 121 µM | > 121 µM | > 121 µM | 
CC(C)C[C@H](NC(=O)[C@H](CC(C)C)NC(=O)[C@H](CCCCN)NC(=O)[C@H](CCCCN)NC(=O)[C@H](C)NC(=O)[C@H](C)NC(=O)[C@H](CC(C)C)NC(=O)[C@H](CCCCN)NC(=O)[C@H](CC(C)C)NC(=O)[C@H](CC(C)C)NC(=O)[C@H](CCCCN)NC(=O)[C@H](C)NC(=O)[C@@H](N)Cc1ccccc1)C(N)=O [FAKLLKLAAKKLL] |  |  |  | MIC [3]: 3.43 µM (≈ 5 µg/mL); MIC [4]: 137 µM (≈ 200 µg/mL)
CC(C)C[C@H](NC(=O)[C@H](CCCCN)NC(=O)[C@H](Cc1ccccc1)NC(=O)[C@@H](NC(=O)[C@@H](NC(=O)CNC(=O)[C@H](CC(C)C)NC(=O)[C@@H](N)Cc1ccccc1)C(C)C)C(C)C)C(=O)N[C@@H](C)C(=O)N[C@@H](CO)C(=O)N[C@@H](CCCCN)C(=O)N[C@H](C(=O)N[C@@H](Cc1ccccc1)C(=O)N1CCC[C@H]1C(=O)N[C@@H](C)C(=O)N[C@H](C(=O)N[C@@H](Cc1ccccc1)C(=O)N[C@@H](CCCCN)C(=O)N[C@@H](CCCCN)C(=O)N[C@H](C(=O)O)C(C)C)C(C)C)C(C)C [FLGVVFKLASKVFPAVFKKV] | 7.19 µM (≈ 16 µg/mL) | 28.8 µM (≈ 64 µg/mL) | 1.8 µM (≈ 4 µg/mL) | 
CC[C@H](C)[C@H](NC(=O)CN)C(=O)NCC(=O)N[C@@H](C)C(=O)N[C@H](C(=O)N[C@@H](CC(C)C)C(=O)N[C@@H](CCCCN)C(=O)N[C@H](C(=O)N[C@@H](CC(C)C)C(=O)N[C@H](C(=O)N[C@H](C(=O)NCC(=O)N[C@@H](C)C(=O)N1CCC[C@H]1C(=O)N[C@@H](C)C(=O)N[C@@H](CC(C)C)C(=O)N[C@H](C(=O)N[C@@H](CO)C(=O)N[C@@H](Cc1c[nH]c2ccccc12)C(=O)N[C@H](C(=O)N[C@@H](CCCCN)C(=O)N[C@@H](CCCN=C(N)N)C(=O)N[C@@H](CCCCN)C(=O)N[C@@H](CCCN=C(N)N)C(=O)N[C@@H](CCC(N)=O)C(=O)N[C@@H](CCC(N)=O)C(N)=O)[C@@H](C)CC)[C@@H](C)CC)[C@@H](C)O)[C@@H](C)O)C(C)C)C(C)C [GIGAVLKVLTTGAPALISWIKRKRQQ] |  |  | 4.3 µM (≈ 12.1 µg/mL) | MIC (Bacillus subtilis): 2.4 µM (≈ 6.73 µg/mL); MIC [5]: 4.5 µM (≈ 12.6 µg/mL)
CC(C)C[C@H](NC(=O)[C@H](CC(C)C)NC(=O)[C@H](CCCCN)NC(=O)[C@H](CCCCN)NC(=O)[C@H](C)NC(=O)[C@H](CC(C)C)NC(=O)[C@H](CCCCN)NC(=O)[C@H](C)NC(=O)[C@H](CC(C)C)NC(=O)[C@H](C)NC(=O)[C@H](CCCCN)NC(=O)[C@H](C)NC(=O)[C@@H](N)Cc1ccccc1)C(N)=O [FAKALAKLAKKLL] |  |  |  | MIC [3]: 3.53 µM (≈ 5 µg/mL); MIC [4]: 3.53 µM (≈ 5 µg/mL)
CC[C@H](C)[C@H](NC(=O)[C@H](CCCCN)NC(=O)[C@@H](NC(=O)[C@@H](NC(=O)[C@@H](NC(=O)[C@H](CCC(N)=O)NC(=O)[C@H](C)NC(=O)CNC(=O)[C@H](CO)NC(=O)[C@H](CCCCN)NC(=O)[C@H](CCC(N)=O)NC(=O)[C@H](C)NC(=O)[C@H](CCCCN)NC(=O)[C@H](CCCCN)NC(=O)[C@H](C)N)[C@@H](C)O)[C@@H](C)CC)C(C)C)C(=O)N[C@@H](Cc1ccccc1)C(=O)N[C@@H](C)C(=O)N[C@@H](CCCCN)C(=O)NCC(=O)N[C@@H](CCSC)C(=O)O [AKKAQKSGAQTIVKIFAKGM] | ≥ 122 µM | > 122 µM |  | 
CC(C)C[C@H](NC(=O)[C@@H](N)Cc1ccccc1)C(=O)NCC(=O)N[C@@H](CCCCN)C(=O)N[C@H](C(=O)N[C@H](C(=O)N[C@@H](CCCCN)C(=O)N[C@@H](CCCCN)C(=O)N[C@@H](C)C(=O)N[C@@H](CO)C(=O)N[C@@H](CCCCN)C(=O)N[C@H](C(=O)N[C@@H](Cc1ccccc1)C(=O)N1CCC[C@H]1C(=O)N[C@@H](C)C(=O)N[C@H](C(=O)N[C@@H](Cc1ccccc1)C(=O)NCC(=O)N[C@@H](CCCCN)C(=O)N[C@H](C(=O)O)C(C)C)C(C)C)C(C)C)C(C)C)C(C)C [FLGKVVKKASKVFPAVFGKV] | ≥ 59.5 µM | 59.5 µM (≈ 128 µg/mL) | > 59.5 µM | 
CC[C@H](C)[C@H](NC(=O)[C@H](CCCCN)NC(=O)CNC(=O)[C@H](C)NC(=O)[C@@H](NC(=O)[C@H](CO)NC(=O)CNC(=O)[C@H](C)NC(=O)[C@H](CCCCN)NC(=O)[C@H](CO)NC(=O)[C@H](C)NC(=O)[C@H](CCSC)NC(=O)CN)C(C)C)C(=O)N[C@@H](C)C(=O)N[C@@H](CCCCN)C(=O)N[C@@H](Cc1ccccc1)C(=O)N[C@@H](C)C(=O)N[C@@H](CC(C)C)C(=O)NCC(=O)N[C@@H](C)C(=O)N[C@@H](CC(C)C)C(N)=O [GMASKAGSVAGKIAKFALGAL] |  |  |  | MIC [6]: 80 µM (≈ 156 µg/mL); MIC [7]: ≥ 80 µM; MIC [8]: ≥ 160 µM
CC[C@H](C)[C@H](NC(=O)CNC(=O)[C@@H](NC(=O)[C@H](CCSC)NC(=O)[C@H](C)NC(=O)[C@H](CC(N)=O)NC(=O)[C@H](CCCCN)NC(=O)[C@H](Cc1ccccc1)NC(=O)[C@H](CO)NC(=O)[C@H](CC(=O)O)NC(=O)[C@H](CC(C)C)NC(=O)[C@H](CC(C)C)NC(=O)CN)[C@@H](C)CC)C(=O)N[C@@H](C)C(=O)N[C@@H](CCCCN)C(=O)N[C@@H](CO)C(=O)N[C@@H](C)C(=O)NCC(=O)N[C@@H](CCCCN)C(=O)N[C@H](C(=O)N[C@@H](C)C(=O)N[C@@H](CC(C)C)C(=O)N[C@@H](CC(N)=O)C(=O)N[C@@H](CCCCN)C(=O)N[C@H](C(=O)N[C@@H](C)C(=O)N[C@H]1CSSC[C@@H](C(=O)O)NC(=O)[C@H]([C@@H](C)O)NC(=O)[C@H](CCCCN)NC(=O)[C@H](CC(=O)O)NC(=O)[C@H]([C@@H](C)CC)NC(=O)[C@H](CCCCN)NC1=O)[C@@H](C)CC)[C@@H](C)O [GLLDSFKNAMIGIAKSAGKTALNKIACKIDKTC] |  |  |  | MIC [6]: > 73 µM; MIC [7]: 18.2 µM (≈ 62.5 µg/mL)
